Results reported in patent US11369644B2, “Microbial consortia” (priority 2018, dated 2022).
Several values for one entry are separate records, joined by “and”; a condition that tells them apart may be missing. Equal entries are not always repeated. Positions of bridges follow the written chain, without caps; N, C: chain ends. Non-standard residues stand in square brackets, D forms with d. Residues, ends and D or L forms follow the SMILES beside them. *: point of attachment. Ileψ(thiazoline)Cys = CC[C@H](C)[C@H](N)C1=N[C@H](C(=O)*)CS1; dOrn = NCCC[C@@H](N)C(=O)O

Assays:
F. prausnitzii ST38 = experiment: Antibiotic resistance by broth solution method (MIC), F. prausnitzii ST38; type: cell-based, Faecalibacterium prausnitzii
Experimental: (§1) Antibiotic resistance in this example was determined using the broth solution method.
(§2) Antibiotic resistance in this example was determined using the broth solution method. This procedure involved preparing two-fold dilutions of antibiotics (e.g., 1, 2, 4, 8, and 16 μg/mL) in a liquid growth medium dispensed in test tubes. The antibiotic-containing tubes were inoculated with a standardized bacterial suspension of about 1-5×10^5 CFU/mL. Following overnight incubation at 37° C., the tubes were examined for visible bacterial growth as evidenced by turbidity. The lowest concentration of antibiotic that prevented growth represented the minimal inhibitory concentration (MIC).

FP-ST38 = experiment: Kirby-Bauer disk diffusion antibiotic susceptibility testing of FP-ST38; type: cell-based, Faecalibacterium prausnitzii; settings: FP-ST38 susceptible
Experimental: Antibiotic susceptibility was determined by standard Kirby-Bauer disk diffusion testing. FP-ST38 is susceptible to the following antibiotics (cm=zone of inhibition): amoxicillin/clavulanic acid (2.5 cm), ceftriaxone (2 cm), tetracycline (5 cm), amikacin (2 cm), and bacitracin (3.4 cm).

AM-ST7 = experiment: Kirby-Bauer disk diffusion antibiotic susceptibility testing of AM-ST7; type: cell-based, Akkermansia muciniphila; settings: AM-ST7 susceptible
Experimental: Antibiotic susceptibility was then determined by standard Kirby-Bauer disk diffusion testing. AM-ST7 was susceptible to the following antibiotics (cm=zone of inhibition): azithromycin (2.5 cm), amoxicillin/clavulanic acid (4 cm), vancomycin (1.5 cm), tetracycline (3 cm), bacitracin (2 cm), and levofloxacin (1.2 cm).

LC-ST100 = experiment: Kirby-Bauer disk diffusion antibiotic susceptibility testing of LC-ST100; type: cell-based, Lactobacillus crispatus; settings: LC-ST100 susceptible
Experimental: Antibiotic susceptibility was determined by standard Kirby-Bauer disk diffusion testing. LC-ST100 is susceptible to the following antibiotics (cm=zone of inhibition): azithromycin (3.5 cm), amoxicillin/clavulanic acid (5 cm), clindamycin (4 cm), vancomycin (3.8 cm), ceftriaxone (3.5 cm), tetracycline (4.2 cm), ampicillin (4 cm), bacitracin (2.5 cm).

L. crispatus ST100 = experiment: Antibiotic resistance by broth solution method (MIC), L. crispatus ST100; type: cell-based, Lactobacillus crispatus
Experimental: as §1, §2

A. muciniphila ST7 = experiment: Antibiotic resistance by broth solution method (MIC), A. muciniphila ST7; type: cell-based, Akkermansia muciniphila
Experimental: as §1, §2

Rho. glutinis DSM 70821 = experiment: Disk diffusion test for antimicrobial activity (DIN 58940-3) against Rho. glutinis; type: cell-based; settings: test strain 1 (Rho. glutinis DSM 70821); positive control 2 μg Cycloheximide/disc; 24 h at 25° C.; disk diameter = 6 mm
Experimental: (§3) Generally, all samples were provided in lyophilized from. Subsets of each sample were suspended in solvent for analysis by LC/MS and GC/MS. Following these analyses, further subsets of each sample were extracted and fractionated (to enrich the medium polar range). Fractions were analyzed by LC/MS. Cell extracts were analyzed in a bioassay against Candida sp. and Rhodotorula sp. in a disk diffusion assay at 3 concentrations.
(§4) Preparative Cell Extraction. Lyophilized cells were extracted prior to fractionation/bio assay to remove cell wall debris. The cells were adjusted to a final concentration of 50 mg/mL (Table 9) and sonicated for 15 min followed by vortexing for 2 min and a second sonication step of 15 min. Afterwards, 10 mL of the suspension were transferred to another vial an centrifuged at 10,000 RCF for 5 min. The supernatant was transferred to a new vial.
(§5) Disk diffusion test. Disk diffusion tests for antimicrobial activity were prepared according to DIN 58940-3 (DIN-Taschenbuch 222, 5. Edition) using the strains 00549fBCD000864 (Rho. glutinis, test strain #1) DSM 70821 and 00539fDSM011226 (Ca. glabrata, test strain #2) DSM 11226. […]
(§6) The test strains were diluted to 1.000.000 cfu/mL using saline solution. […] After 24 h the zone of inhibition was measured and recorded in Table 10 below.

Ca. glabrata DSM 11226 = experiment: Disk diffusion test for antimicrobial activity (DIN 58940-3) against Ca. glabrata; type: cell-based; settings: test strain 2 (Ca. glabrata DSM 11226); positive control 2 μg Cycloheximide/disc; 24 h at 25° C.; disk diameter = 6 mm
Experimental: as §3, §4, §5, §6

| Compound | zone of inhibition (FP-ST38) | zone of inhibition (AM-ST7) | zone of inhibition (LC-ST100) | other results |
| --- | --- | --- | --- | --- |
| NCC[C@H](O)C(=O)N[C@@H]1C[C@H](N)[C@@H](O[C@H]2O[C@H](CN)[C@@H](O)[C@H](O)[C@H]2O)[C@H](O)[C@H]1O[C@H]1O[C@H](CO)[C@@H](O)[C@H](N)[C@H]1O [amikacin] | 2 cm |  |  | antibiotic susceptibility (F. prausnitzii ST38): susceptible |
| C[C@H]1COc2c(N3CCN(C)CC3)c(F)cc3c(=O)c(C(=O)O)cn1c23 [levofloxacin] |  | 1.2 cm |  |  |
| CO/N=C(\C(=O)N[C@@H]1C(=O)N2C(C(=O)O)=C(CSc3nc(=O)c(=O)[nH]n3C)CS[C@H]12)c1csc(N)n1 [ceftriaxone] | 2 cm |  | 3.5 cm |  |
| CCC[C@@H]1C[C@@H](C(=O)N[C@@H]([C@H]2O[C@H](SC)[C@H](O)[C@@H](O)[C@H]2O)[C@H](C)Cl)N(C)C1 [clindamycin] |  |  | 4 cm |  |
| CC[C@H]1OC(=O)[C@H](C)[C@@H](O[C@H]2C[C@@](C)(OC)[C@@H](O)[C@H](C)O2)[C@H](C)[C@@H](O[C@@H]2O[C@H](C)C[C@H](N(C)C)[C@H]2O)[C@](C)(O)C[C@@H](C)CN(C)[C@H](C)[C@@H](O)[C@]1(C)O [azithromycin] |  | 2.5 cm | 3.5 cm | antibiotic susceptibility (L. crispatus ST100): susceptible; antibiotic susceptibility (F. prausnitzii ST38): susceptible; antibiotic susceptibility (A. muciniphila ST7): susceptible |
| CN(C)[C@@H]1C(O)=C(C(N)=O)C(=O)[C@@]2(O)C(O)=C3C(=O)c4c(O)cccc4[C@@](C)(O)[C@H]3C[C@@H]12 [tetracycline] | 5 cm | 3 cm | 4.2 cm |  |
| CC[C@H](C)[C@H](N)C1=N[C@H](C(=O)N[C@@H](CC(C)C)C(=O)N[C@H](CCC(=O)O)C(=O)N[C@H](C(=O)N[C@H]2CCCCNC(=O)[C@H](CC(N)=O)NC(=O)[C@@H](CC(=O)O)NC(=O)[C@H](Cc3cnc[nH]3)NC(=O)[C@@H](Cc3ccccc3)NC(=O)[C@H]([C@@H](C)CC)NC(=O)[C@@H](CCCN)NC2=O)[C@@H](C)CC)CS1 [bacitracin] ({Ileψ(thiazoline)Cys}-L[dE]IK[dOrn]I[dF]H[dD]N; lactam 4-C) | 3.4 cm | 2 cm | 2.5 cm |  |
| CC1(C)S[C@@H]2[C@H](NC(=O)[C@H](N)c3ccccc3)C(=O)N2[C@H]1C(=O)O [ampicillin] |  |  | 4 cm | antibiotic susceptibility (L. crispatus ST100): susceptible |
| amoxicillin/clavulanic acid | 2.5 cm | 4 cm | 5 cm |  |
| C[C@@H]1C[C@@H]([C@H](O)CC2CC(=O)NC(=O)C2)C(=O)[C@@H](C)C1 [Cycloheximide] |  |  |  | Diameter inhibition zone [mm] Pos. Control (Rho. glutinis DSM 70821): 14 mm and 13 mm; Diameter inhibition zone [mm] Pos. Control (Ca. glabrata DSM 11226): 11 mm and 10 mm and 9 mm |
| CN[C@H](CC(C)C)C(=O)N[C@H]1C(=O)N[C@@H](CC(N)=O)C(=O)N[C@H]2C(=O)N[C@H]3C(=O)N[C@H](C(=O)N[C@H](C(=O)O)c4cc(O)cc(O)c4-c4cc3ccc4O)[C@H](O)c3ccc(c(Cl)c3)Oc3cc2cc(c3O[C@@H]2O[C@H](CO)[C@@H](O)[C@H](O)[C@H]2O[C@H]2C[C@](C)(N)[C@H](O)[C@H](C)O2)Oc2ccc(cc2Cl)[C@H]1O [vancomycin] |  | 1.5 cm | 3.8 cm | antibiotic susceptibility (L. crispatus ST100): susceptible; antibiotic susceptibility (F. prausnitzii ST38): susceptible |
